The target in one assay is T1, hVR1 (Homo sapiens, UniProt Q8NER1).
T1 construct: expressed in transfected cells; host or cells: CHO K1 cells (ECACC)
Put plainly: Functional investigation at the vanilloid receptor (VR1), FLIPR Ca2+ influx assay, Method II, hVR1. The class given is cell-based. The conditions noted are these: for IC50: suppression of capsaicin-induced Ca2+ influx; for inhibition at 10 µM: test substance 10 μM, CHO K1 cells transfected with VR1, inhibition of Ca2+ influx after 100 nM capsaicin, compared to maximum inhibition with 10 μM capsazepin. The text has this: (§1) The agonistic and/or antagonistic effects of the test substances on the vanilloid receptor (VR1) can be determined with the following assay. According to this assay the Ca^2+ influx through the channel is quantified by means of a Ca^2+-sensitive dye (Type Fluo-4, Molecular Probes, Europe BV, Leyden, The Netherlands) in the Fluorescent Imaging Plate Reader (FLIPR, Molecular Devices, Sunnyvale, USA).
(§2) Chinese hamster ovary cells (CHO K1-cells, European Collection of Cell Cultures (ECACC) Great Britain) are stably transfected with the VR1 gene. For functional studies, these cells are plated on poly-D-lysine-coated, black 96-well plates with clear bottom (BD Biosciences, Heidelberg, Germany) at a density of 25 000 cells/well. The cells are incubated overnight at 37° C. and 5% CO2 in a culture medium (Nutrient Mixture Ham's F12, 10 vol. % FCS (fetal calf serum), 18 μg/ml L-proline). On the next day the cells are incubated for 30 minutes at 37° C. with Fluo-4 (Fluo-4 2 μM, Pluronic F127 0.01 vol. %, Molecular Probes) in HBSS (Hank's buffered saline solution), (Gibco Invitrogen GmbH, Karlsruhe, Germany). Then the plates are washed 3 times with HBSS buffer and, after further incubation of 15 minutes at room temperature, they are used for Ca^2+ measurement in the FLIPR. The Ca^2+-dependent fluorescence is measured before and after adding the test substances (wavelength λex=^488 nm, λem=540 nm). Quantification is based on measurement of the maximum fluorescence intensity (FC, fluorescence counts) over time.
(§3) The FLIPR protocol comprises 2 additions of the substance. First the test substances (10 μM) are pipetted onto the cells and the Ca^2+ influx is compared with the control (capsaicin 10 μM) (% activation relative to the Ca^2+ signal after adding 10 μM capsaicin). After incubation for 5 minutes, 100 nM capsaicin is applied and the influx of Ca^2+ is determined again.
(§4) Desensitizing agonists and antagonists led to suppression of Ca^2+ influx. The % inhibition is calculated compared to the maximum inhibition attainable with 10 μM capsazepin.

A further assay deals with T2, rVR1 (Rattus norvegicus, UniProt O35433).
T2 construct: expressed in transfected cells; host or cells: CHO K1 cells (ECACC)
T2 sequence (O35433 whole entry): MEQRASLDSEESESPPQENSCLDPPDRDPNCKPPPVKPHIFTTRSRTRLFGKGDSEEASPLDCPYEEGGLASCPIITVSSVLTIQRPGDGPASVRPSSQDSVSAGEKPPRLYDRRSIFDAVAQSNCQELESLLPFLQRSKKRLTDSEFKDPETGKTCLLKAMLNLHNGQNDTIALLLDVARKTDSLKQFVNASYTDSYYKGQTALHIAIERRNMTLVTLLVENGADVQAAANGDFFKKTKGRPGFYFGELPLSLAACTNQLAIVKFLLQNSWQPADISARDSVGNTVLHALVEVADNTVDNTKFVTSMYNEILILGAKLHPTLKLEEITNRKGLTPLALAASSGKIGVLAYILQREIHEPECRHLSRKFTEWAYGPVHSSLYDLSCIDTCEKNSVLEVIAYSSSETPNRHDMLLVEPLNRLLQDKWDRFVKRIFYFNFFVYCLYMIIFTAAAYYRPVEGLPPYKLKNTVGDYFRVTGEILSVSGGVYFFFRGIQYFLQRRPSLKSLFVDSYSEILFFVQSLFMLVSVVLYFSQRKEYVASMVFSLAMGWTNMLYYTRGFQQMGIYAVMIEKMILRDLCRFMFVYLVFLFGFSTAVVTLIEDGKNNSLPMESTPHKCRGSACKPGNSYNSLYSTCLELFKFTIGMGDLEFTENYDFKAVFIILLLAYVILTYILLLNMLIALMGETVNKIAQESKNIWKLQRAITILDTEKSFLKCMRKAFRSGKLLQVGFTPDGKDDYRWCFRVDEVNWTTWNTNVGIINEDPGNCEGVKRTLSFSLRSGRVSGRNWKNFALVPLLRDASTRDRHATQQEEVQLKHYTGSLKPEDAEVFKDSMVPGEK
The assay can be described thus: Functional investigation at the vanilloid receptor (VR1), FLIPR Ca2+ influx assay, Method II, rVR1. The format is cell-based. The conditions noted are these: for IC50: suppression of capsaicin-induced Ca2+ influx; for rVR1 10 μM Stimulation / inhibition at 10 µM: test substance 10 μM; for rVR1 10 μM Stimulation: % activation relative to the Ca2+ signal after adding 10 μM capsaicin; for inhibition at 10 µM: inhibition of Ca2+ influx after 100 nM capsaicin, compared to maximum inhibition with 10 μM capsazepin.
Text: as §1, §2, §3, §4

Each structure is given as a SMILES string.

The IC50 is the concentration at which inhibition is half-maximal. The term inhibition denotes the change of the read-out against control, counted positive when it falls.

T1 sequence (Q8NER1 whole entry): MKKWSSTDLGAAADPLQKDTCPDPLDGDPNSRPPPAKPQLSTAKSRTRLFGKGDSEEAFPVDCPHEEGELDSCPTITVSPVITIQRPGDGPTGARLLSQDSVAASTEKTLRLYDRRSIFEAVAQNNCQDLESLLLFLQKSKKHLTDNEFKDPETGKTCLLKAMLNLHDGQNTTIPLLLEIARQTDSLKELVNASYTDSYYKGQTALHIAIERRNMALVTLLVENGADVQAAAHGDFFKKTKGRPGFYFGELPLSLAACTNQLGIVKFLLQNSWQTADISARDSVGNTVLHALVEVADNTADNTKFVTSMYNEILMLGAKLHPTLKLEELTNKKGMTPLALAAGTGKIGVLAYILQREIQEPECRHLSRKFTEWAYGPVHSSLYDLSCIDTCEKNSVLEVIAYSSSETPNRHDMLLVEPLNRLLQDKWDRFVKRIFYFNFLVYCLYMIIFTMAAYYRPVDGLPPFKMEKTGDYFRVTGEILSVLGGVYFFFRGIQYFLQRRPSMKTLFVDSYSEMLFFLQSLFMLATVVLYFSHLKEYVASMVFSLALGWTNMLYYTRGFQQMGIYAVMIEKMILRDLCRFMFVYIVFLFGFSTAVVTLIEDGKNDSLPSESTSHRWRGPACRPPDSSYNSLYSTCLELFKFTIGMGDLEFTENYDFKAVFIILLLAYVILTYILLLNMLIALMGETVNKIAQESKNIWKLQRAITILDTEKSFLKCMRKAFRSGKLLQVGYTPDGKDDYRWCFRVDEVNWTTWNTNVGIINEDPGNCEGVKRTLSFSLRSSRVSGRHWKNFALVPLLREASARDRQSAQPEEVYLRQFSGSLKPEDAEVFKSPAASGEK

With `CCCCCCCCCCCCCCCCOC(=O)NC(=O)NCC[N+](C)(C)C` [compound 15, 4-(Trimethylamino-1-ethyl)allophanic acid hexadecyl ester iodide], on hVR1, the IC50 was 3.45 µM and the inhibition at 10 µM worked out at 101%. Further, on rVR1, the IC50 stood at 2.95 µM, the “rVR1 10 μM Stimulation” value is reported as −1.01% and the inhibition at 10 µM is 109%.

Regarding `CCCCCCCCCCCCCCCCOC(=O)NC(=O)NCC[N+]1(C)CCCC1` [compound 2, 4-(Pyrrolidinium-1-ethyl)allophanic acid hexadecyl ester iodide], on hVR1, the IC50 stood at 0.92 µM and the inhibition at 10 µM was 88.9%. In addition, at rVR1, inhibition was half-maximal at 1.23 µM (IC50), the “rVR1 10 μM Stimulation” value is on record as −0.02% and the inhibition at 10 µM came out at 87.1%.

Regarding `CCCCCCCCCCCCOC(=O)NC(=O)NCC[N+](C)(C)C` [compound 1, 4-(Trimethylamino-1-ethyl)allophanic acid dodecyl ester iodide], at hVR1, the half-inhibitory concentration (IC50) is 2.43 µM and the inhibition at 10 µM was determined as 95.4%. At rVR1, it took 2.1 µM to reach half-maximal inhibition (IC50), the “rVR1 10 μM Stimulation” value is 0.55% and the inhibition at 10 µM stood at 103%.

For the compound `CCCCCCCCCCCCCCCCOCC1(COC(=O)NC(=O)NCC[N+](C)(C)C)CCCO1` (centres unmarked) [compound 16, 4-(Trimethylamino-1-ethyl)allophanic acid (2-hexadecyloxymethyltetrahydrofuran-2-yl)methyl ester iodide], at hVR1, the half-maximal inhibitory concentration (IC50) came out at 1.7 µM and the inhibition at 10 µM was determined as 68.6%. Further, at rVR1, the IC50 came to 2.9 µM, the “rVR1 10 μM Stimulation” value was found to be 0.58% and the inhibition at 10 µM was determined as 99.3%.

`CCCCCCCCCCCCCCCCOC(=O)NC(=O)NCCC[N+](C)(C)C` [compound 3, 4-(Trimethylamino-1-propyl)allophanic acid hexadecyl ester iodide]: at hVR1, the IC50 came out at 4.27 µM and the inhibition at 10 µM came out at 56.9%. On rVR1, the IC50 stood at 1.27 µM, the “rVR1 10 μM Stimulation” value is −0.73% and the inhibition at 10 µM was 94.4%.

Take `CCCCCCCCCCCCCCCCOCC(COC(=O)NC(=O)NCC[N+](C)(C)C)OC` (centres unmarked) [compound 14, 4-(Trimethylamino-1-ethyl)allophanic acid 3-hexadecyloxy-2-methoxypropan-1-yl ester iodide]: on hVR1, the midpoint of inhibition, the IC50, lay at 2.4 µM and the inhibition at 10 µM stood at 93.1%. Also, at rVR1, the concentration for half-maximal inhibition (IC50) stood at 1.15 µM, the “rVR1 10 μM Stimulation” value is 0.09% and the inhibition at 10 µM is 95.5%.

With `CCCCCCCCCCCCCCCCOC[C@@H]1CC[C@H](COC(=O)NC(=O)NCC[N+](C)(C)C)O1` (relative stereo) [compound 13, 4-(Trimethylamino-1-ethyl)allophanic acid (cis-5-hexadecyloxymethyltetrahydrofuran-2-yl)methyl ester iodide], on hVR1, inhibition was half-maximal at 1.1 µM (IC50) and the inhibition at 10 µM was 80.8%. In addition, at rVR1, the midpoint of inhibition, the IC50, lay at 1.3 µM; the “rVR1 10 μM Stimulation” value amounted to 0.36%; the inhibition at 10 µM stood at 92.1%.

The values are drawn from patent publication US8173700B2, “Salts of substituted allophanates and their use in drugs” (Gruenenthal GmbH, priority 2005, dated 2012).
